# Calls of active or inactive are those of the source.
# Legend:
# [1] = Late stage assay provider results from the probe development effort to identify selective inhibitors of heat shock protein 90 (HSP90): Absorbance-based cell proliferation assay in SKBR3 cells.; type: functional; conditions: SK-BR-3
# [2] = Late stage assay provider results from the probe development effort to identify selective inhibitors of heat shock protein 90 (HSP90): Absorbance-based cell proliferation assay in MCF7 cells.; type: functional
# [3] = HEK293 cell cytotoxicity, dose response, cytotoxicity control, cherry-picks, set 5 (AID 1053117); type: functional, cell-based
# [4] = MC4R antagonists, dose response, counter-screen for LGR2 antagonist project, cell-based, plate reader, cherry pick (AID 743444); type: functional;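 also: transfected HEK 293 cells stimulated with alpha-MSH peptide; potency of inhibitors of the alpha-MSH evoked signal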
# [5] = LGR2 antagonists, dose response, cell-based, HEK293, CRE-luciferase reporter, cherry pick, set 2 (AID 743343); type: functional;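 also: transfected cells were stimulated with diluted bursicon conditioned medium after compound addition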
# [6] = A549 cell cytotoxicity, dose response, cytotoxicity control, plate reader, cherry-pick, antagonist series (AID 743412); type: functional, cell-based
# [7] = molecular target: T1, Nuclear receptor subfamily 0 group B member 1 (Homo sapiens, UniProt P51843); type: functional, cell-based;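 also: HEK293T cells transfected with SF-1 and DAX-1 plus StAR promoter luciferase reporter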
# T1 sequence (P51843 whole entry): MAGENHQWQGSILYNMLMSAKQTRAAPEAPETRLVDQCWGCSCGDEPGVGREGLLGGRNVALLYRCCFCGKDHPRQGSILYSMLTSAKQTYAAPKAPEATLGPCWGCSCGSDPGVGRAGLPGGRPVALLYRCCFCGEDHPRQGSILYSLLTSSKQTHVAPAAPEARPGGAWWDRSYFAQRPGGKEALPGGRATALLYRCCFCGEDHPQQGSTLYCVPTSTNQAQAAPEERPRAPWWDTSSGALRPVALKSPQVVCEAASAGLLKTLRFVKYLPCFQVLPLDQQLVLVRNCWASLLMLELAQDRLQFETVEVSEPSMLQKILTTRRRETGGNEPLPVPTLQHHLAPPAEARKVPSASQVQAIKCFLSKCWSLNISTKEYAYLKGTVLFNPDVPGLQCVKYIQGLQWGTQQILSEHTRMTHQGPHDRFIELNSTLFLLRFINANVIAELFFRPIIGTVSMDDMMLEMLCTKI
# cells = type: functional, cell-based
# [8] = molecular target: Fructose-bisphosphate aldolase (Mycobacterium tuberculosis, UniProt P9WQA3); test: Fluorescence-based biochemical high throughput dose response assay for inhibitors of the fructose-bisphosphate aldolase (FBA) of M. tuberculosis.; type: functional
# [9] = LMP1-driven NF-kB reporter inhibition, dose response, cell-based, luciferase reporter, luminescence, dry powder, set 2 (AID 624376); type: functional
# [10] = inhibitors of LMP1-driven NF-kB reporter, dose response, cell-based, EBV LMP1, luciferase, dry powder, set 2 (AID 624361); type: functional
# [11] = inhibitors of TNFa-stimulated NF-kB luciferase reporter, dose response, selectivity assay for EBV LMP1 NF-kB inhibitor project, HEK293 LMP1 reporter cells, dry powder, set 2 (AID 624369); type: functional
# [12] = miR-122 activators in hepatoma reporter cells, dose response, cell-based, Huh7 psiCHECK-miR122, Renilla luciferase, cherry-picked (AID 651956); type: functional;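 also: huh7 hepatoma cells stably carrying a psiCHECK-2 miR-122 sensor plasmid; renilla luciferase signal reporting endogenous miR-122 activity after 48 h compound exposure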
# [13] = TRPM1 promoter luciferase reporter signal decrease, dose response, MITF inhibitor project, cell-based, SK-MEL-5, dry powder, set 8 (AID 624430); type: functional
# [14] = MITF: Counter assay: A375 proliferation Measured in Cell-Based System Using Plate Reader - 2084-03_Inhibitor_Dose_DryPowder_Activity_Set8.; type: functional; conditions: A-375
# [15] = MITF Orthogonal Assay: SK-MEL-5 CTG Assay Measured in Cell-Based System Using Plate Reader - 2084-02_Inhibitor_Dose_DryPowder_Activity_Set7.; type: functional
# Nonstructural protein 1 = Nonstructural protein 1 (Influenza A virus, UniProt Q194T2); type: functional, Influenza A virus (A/California/07/2009(H1N1))
# [16] = HepG2 cell cytotoxicity, dose response, cytotoxicity control, ATP luminescence, cherry-pick, activator set 2 (AID 1053143); type: functional, cell-based
# Chain of Nonstructural protein 1 (Q194T2 whole entry): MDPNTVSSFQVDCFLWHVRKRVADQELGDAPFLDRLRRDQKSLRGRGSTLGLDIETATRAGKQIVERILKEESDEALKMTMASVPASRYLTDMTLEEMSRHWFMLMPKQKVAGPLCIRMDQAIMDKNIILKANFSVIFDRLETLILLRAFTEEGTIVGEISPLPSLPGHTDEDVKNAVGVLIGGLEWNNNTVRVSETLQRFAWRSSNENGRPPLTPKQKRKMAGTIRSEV
# Chain of Fructose-bisphosphate aldolase (P9WQA3 whole entry): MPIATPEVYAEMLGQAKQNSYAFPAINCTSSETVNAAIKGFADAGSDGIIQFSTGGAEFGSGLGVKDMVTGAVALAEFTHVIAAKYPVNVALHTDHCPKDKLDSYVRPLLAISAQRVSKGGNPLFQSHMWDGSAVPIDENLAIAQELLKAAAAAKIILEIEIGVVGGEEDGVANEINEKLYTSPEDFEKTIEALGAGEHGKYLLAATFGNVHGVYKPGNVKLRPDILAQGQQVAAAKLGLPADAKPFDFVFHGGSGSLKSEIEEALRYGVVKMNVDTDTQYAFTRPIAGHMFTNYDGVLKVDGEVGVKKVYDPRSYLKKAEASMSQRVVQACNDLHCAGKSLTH
structure (smiles),measurement,setting,value
Cc1cccc(NC(=O)c2coc(=O)c(Br)c2)n1,IC50,[1],45.8 µM (inactive)
same,IC50,[2],27.3 µM (inactive)
CO[C@H]1CN(C)C(=O)c2cc(NC(=O)Nc3cc(Cl)cc(Cl)c3)ccc2OC[C@@H](C)NC[C@@H]1C,AC50,[3],> 52 µM (inactive)
COc1ccc(-c2cn3cc(C)ccc3n2)cc1F,AC50,[4],2.87 µM (active)
same,AC50,[5],3 µM (active)
same,AC50,[6],30.9 µM (active)
same,IC50,[7],> 67.6 µM (inactive)
same,IC50,cells,> 67.6 µM (inactive)
COc1cc2c(cc1OC)C(C1C(=O)CC(C)CC1=O)N(C(=O)CCl)CC2 (stereo not drawn),IC50,[8],> 9.99 µM (inactive)
COc1ccccc1CNC(=O)C[C@@H]1C[C@H]2c3cc(NC(=O)c4ccc5c(c4)OCO5)ccc3O[C@H]2[C@H](CO)O1,AbsAC35,[9],37.67 µM
same,AbsAC35,[10],179.84 µM
same,AbsAC35,[11],232.4 µM
COc1cc(C2c3cc4c(cc3C(O)C3COC(=O)C23)OCO4)cc(OC)c1OC (stereo not drawn),IC50,[7],> 67.5 µM (inactive)
same,IC50,cells,> 67.5 µM (inactive)
CN1C(=O)c2cc(NC(=O)c3ccc(C(F)(F)F)cc3)ccc2OC[C@@H]2O[C@H](CC(=O)NC3Cc4ccccc4C3)CC[C@H]21,AbsAC35,[9],100.28 µM
same,AbsAC35,[10],52.78 µM
same,AC50,[12],15.5 µM (active)
same,AbsAC35,[11],229.94 µM
COc1ccc(NC2=C(C)C(=O)c3ccccc3C2=O)cc1,AC50,[13],14.3 µM (active)
same,AC50,[14],> 70 µM (inactive)
same,AC50,[15],0.533 µM (active)
c1ccc(-c2cnc(-c3ccccn3)nn2)cc1,IC50,Nonstructural protein 1,18.9 µM (active)
same,AC50,[16],26 µM (active)

# — ChEMBL document CHEMBL1201862, “PubChem BioAssay data set” (2004)
